Data from patent US9102648B1, “Bioavailable diacylhydrazine ligands for modulating the expression of exogenous genes via an ecdysone receptor complex” (Intrexon Corporation, priority 2003, dated 2015).
pEC50: −log10 of the molar value. Where two headings read alike, the source gives them in different places.

Columns and labels:
[1] = target: T1, Bombyx mori EcR (VP16 fusion, CVBE switch construct) (Bombyx mori, UniProt P49881); assay: Z3 Assay (HEK-293 cells with CVBE and 6XEcRE LacZ, β-galactosidase reporter); details: for Fold Induction, Z3 Assay, 3.3 uM: 3.3 uM ligand; for Fold Induction, Z3 Assay, 3.3 uM / Fold Induction, Z3 Assay, 33 uM: ligand treated / DMSO treated cells; for Fold Induction, Z3 Assay, 33 uM: 33 uM ligand; for Z3 assay Rel Max FI: maximum fold induction at any concentration relative to that of GS-E ligand; for fold induction at 3.3 µM: HEK293, read-out: Fold Induction, Z3 Assay, 3.3 uM; for fold induction at 33 µM: HEK293, read-out: Fold Induction, Z3 Assay, 33 uM
T1 sequence (P49881 86-606): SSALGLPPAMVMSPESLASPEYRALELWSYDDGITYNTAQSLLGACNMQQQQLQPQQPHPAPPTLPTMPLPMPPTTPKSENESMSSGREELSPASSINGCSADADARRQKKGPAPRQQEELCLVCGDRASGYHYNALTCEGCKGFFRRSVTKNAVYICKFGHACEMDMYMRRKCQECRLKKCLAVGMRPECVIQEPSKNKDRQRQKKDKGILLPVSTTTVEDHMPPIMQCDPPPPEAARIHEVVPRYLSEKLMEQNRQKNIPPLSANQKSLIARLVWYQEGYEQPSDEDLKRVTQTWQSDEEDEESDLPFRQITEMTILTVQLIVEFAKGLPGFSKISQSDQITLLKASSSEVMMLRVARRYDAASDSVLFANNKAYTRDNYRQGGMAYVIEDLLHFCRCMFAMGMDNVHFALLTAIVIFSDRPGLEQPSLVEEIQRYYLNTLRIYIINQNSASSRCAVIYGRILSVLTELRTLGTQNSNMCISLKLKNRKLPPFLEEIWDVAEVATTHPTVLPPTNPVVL
T1 sequence (P19793 1-462 partner): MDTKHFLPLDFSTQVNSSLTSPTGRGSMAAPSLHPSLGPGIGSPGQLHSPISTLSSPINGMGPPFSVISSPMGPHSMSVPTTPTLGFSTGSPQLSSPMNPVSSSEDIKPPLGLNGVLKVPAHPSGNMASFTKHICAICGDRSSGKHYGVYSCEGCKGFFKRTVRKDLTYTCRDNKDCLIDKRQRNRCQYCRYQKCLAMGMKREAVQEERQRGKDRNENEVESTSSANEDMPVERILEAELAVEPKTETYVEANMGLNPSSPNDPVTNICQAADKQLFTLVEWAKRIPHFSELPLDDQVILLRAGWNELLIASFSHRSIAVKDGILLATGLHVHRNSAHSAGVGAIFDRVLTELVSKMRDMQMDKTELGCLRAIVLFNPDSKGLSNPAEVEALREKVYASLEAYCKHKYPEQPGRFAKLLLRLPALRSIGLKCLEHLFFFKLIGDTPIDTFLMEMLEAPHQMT

[2] = target: GAL4 DBD-CfEcR(DEF)/VP16AD-MmRXRE (Choristoneura fumiferana, UniProt O77240); assay: 13B3 Assay (CHO stable cell line, luciferase reporter); details: for Fold Induction, 13B3 Assay, 3.3 uM: 3.3 uM ligand; for Fold Induction, 13B3 Assay, 3.3 uM / Fold Induction, 13B3 Assay, 33 uM: RLU ligand treated / RLU DMSO treated cells; for Fold Induction, 13B3 Assay, 33 uM: 33 uM ligand; for 13B3 assay Rel Max FI: maximum fold induction at any concentration relative to that of GS-E ligand, CHO 13B3 cells; for fold induction at 3.3 µM: read-out: Fold Induction, 13B3 Assay, 3.3 uM; for fold induction at 33 µM: read-out: Fold Induction, 13B3 Assay, 33 uM
How it was run: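 Ligands dosed at 8 levels from 33 to 0.01 μM (DMSO stocks diluted 300-fold) onto the 13B3 CHO line carrying GAL4-DBD/CfEcR-DEF, VP16/MmRXR-DE and a GAL4-responsive luciferase gene.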

[3] = read-out: Z3 assay EC50, HEK-293 Z3 cells, β-galactosidase reporter, average of two wells
[4] = read-out: 13B3 EC50, CHO 13B3 stable cell line, luciferase reporter, 48 h, average of two wells

Row | SMILES | Fold Induction, Z3 Assay, 3.3 uM ([1]; average of two wells) | Fold Induction, Z3 Assay, 33 uM ([1]; average of two wells) | Z3 assay Rel Max FI ([1]; HEK-293 Z3 cells) | pEC50 [1, 3] | Fold Induction, 13B3 Assay, 3.3 uM ([2]; average of two wells) | Fold Induction, 13B3 Assay, 33 uM ([2]; average of two wells) | 13B3 assay Rel Max FI [2] | pEC50 [2, 4] | pEC50 [1] | fold induction at 3.3 µM [1] | fold induction at 33 µM [1] | pEC50 [2] | fold induction at 3.3 µM [2] | fold induction at 33 µM [2]
1 | Cc1c(C(=O)NN(C(=O)c2cc(F)cc(F)c2)C(C)(C)C)ccc2c1CCCO2 [RG-115207] | 354 | 508 | 0.923 | 6.59 | 7260 | 7959 | 0.707 | 6.21 | – | – | – | – | – | –
2 | CCc1c(OC)cccc1C(=O)NN(C(=O)c1cc(C)cc(COC(C)=O)c1)C(C)(C)C [RG-115223] | 323 | 1299 | 0.925 | 5.72 | 8 | 3437 | 1.346 | < 4.30 | – | – | – | – | – | –
3 | Cc1c(C(=O)NN(C(=O)c2cc(F)c(F)cc2F)C(C)(C)C)ccc2c1CCCO2 [RG-115229] | – | 1032 | – | 6.37 | 599 | 709 | 0.418 | 5.65 | – | – | – | – | – | –
4 | CCc1c(C(=O)NN(C(=O)c2ccccc2OC)C(C)(C)C)ccc2c1OCCO2 [RG-115244] | 283 | 816 | 0.959 | 7.07 | 2404 | 573 | 0.663 | 6.43 | – | – | – | – | – | –
5 | CCc1c(OC)cccc1C(=O)NN(C(=O)c1cc(Cl)ccc1OC)C(C)(C)C [RG-115253] | – | 832 | – | 6.57 | – | 471 | – | – | – | – | – | – | – | –
6 | CCc1c(OC)cccc1C(=O)NN(C(=O)c1cc(Cl)ccc1[N+](=O)[O-])C(C)(C)C [RG-115257] | 297 | 691 | 0.885 | 6.69 | 820 | 354 | 0.742 | 6.05 | – | – | – | – | – | –
7 | CCc1c(OC)cccc1C(=O)NN(C(=O)c1cc(C)cc(C)c1)C(C)(C)C=NO [RG-115258, 2-ethyl-3-methoxy-benzoic acid N′-(3,5-dimethyl-benzoyl)-N′-(2-hydroxyimino-1,1-dimethyl-ethyl)-hydrazide] | – | – | 0.882 | – | – | – | 1.334 | – | 6.19 | 382 | 1120 | 4.57 | 144 | 3740
8 | Cc1c(C(=O)NN(C(=O)c2cccc(F)c2)C(C)(C)C)ccc2c1CCCO2 [RG-115278] | 158 | 1225 | 0.893 | 6.59 | 1950 | 1050 | 0.823 | 6.20 | – | – | – | – | – | –
9 | CCc1c(C(=O)NN(C(=O)c2cc(Cl)nc(Cl)c2)C(C)(C)C)ccc2c1OCCO2 [RG-115297] | 443 | 604 | 0.872 | 7.18 | 1364 | 304 | 0.737 | 5.87 | – | – | – | – | – | –
10 | CCc1c(OC)cccc1C(=O)NN(C(=O)c1cc(F)c(Cl)cc1Cl)C(C)(C)C [RG-115302] | – | 404 | – | 6.56 | 521 | 648 | 0.624 | 5.70 | – | – | – | – | – | –
11 | COc1cccc(C(=O)NN(C(=O)c2cc(C)cc(C)c2)C(C)(C)C)c1N [RG-115378] | 488 | 1464 | 0.947 | 6.49 | 1778 | 2424 | 0.655 | 5.75 | – | – | – | – | – | –
12 | Cc1ccc([N+](=O)[O-])c(C(=O)N(NC(=O)c2ccc3c(c2C)OCCO3)C(C)(C)C)c1 [RG-115384] | 337 | – | 0.904 | 6.78 | 2753 | 2277 | 0.426 | 6.49 | – | – | – | – | – | –
13 | CCc1c(OC)cccc1C(=O)NN(C(=O)c1cc(C)cc(C)c1)C(C)(C)C=O [RG-115407, 2-ethyl-3-methoxy-benzoic acid N′-(3,5-dimethyl-benzoyl)-N′-(1,1-dimethyl-2-oxo-ethyl)-hydrazide] | – | – | 0.906 | – | – | – | 1.048 | – | 6.46 | 391 | 879 | 5.15 | 2480 | 2610
14 | Cc1c(C(=O)NN(C(=O)c2ccc(F)c(F)c2)C(C)(C)C)ccc2c1CCCO2 [RG-115416] | 164 | 1116 | 1.869 | 7.04 | 3618 | 2737 | 12.104 | 6.03 | – | – | – | – | – | –
15 | Cc1ccc(F)c(C(=O)N(NC(=O)c2ccc3c(c2C)CCCO3)C(C)(C)C)c1 [RG-115499] | 173 | 641 | 0.954 | 6.77 | 1182 | 731 | 0.489 | 6.48 | – | – | – | – | – | –
